Results taken from US20130096212A1, “Method and a Kit to Predict Response to Antidepressant Treatment” (UNIVERSITY OF TARTU, priority 2011, published 2013).

Assays:
[1] = test system: MDD patients; assay: Replication sample: MDD patients treated with escitalopram for 12 weeks, MADRS change by rs41271330 genotype; assay type: in vivo, human; conditions: 394 patients, SE=3%
Text: Replication sample consisted of 394 patients treated with escitalopram for 12 weeks. All the patients were of European origin. […] For validation of significant markers from previous step 5 SNPs were genotyped with pre-designed Taqman assays and one SNP was genotyped with Sanger sequencing. These […] markers were genotyped in the remaining 116 individuals, and tested for association with the clinical outcome. Three different outcome definitions were used: MADRS score at the final visit (week 12), relative change (percentage) in MADRS score since baseline, and absolute change in MADRS score since baseline. For each outcome, a univariate additive regression model was fitted to assess the association, as well as a multivariate model, adjusted for age, gender, age at first depression episode, baseline MADRS and BDI scores. Additionally a mixed-effects longitudinal model was fit for MADRS scores at week 0 to week 12, using a random subject-specific intercept. Also here, both unadjusted and adjusted models were fit. Age at recruitment, gender, age at first depression episode and baseline BDI score appeared to be independently predictive (p<0.05) for at least one of the outcomes after adjusting for other covariates in a multivariate regression model and were therefore used as adjustment variables for genotype-outcome association. […]

[2] = test system: outpatients with Major Depressive Disorder; assay: 12-week open-label escitalopram treatment of MDD outpatients, Estonian sample (MADRS, HAM-D, CGI), also by rs41271330 genotype; assay type: in vivo, human; conditions: for patients with moderate or severe depression (MADRS score 16 or more): end of 12 weeks
Text: The study sample consisted of 135 outpatients with Major Depressive Disorder, MDD (mean age 31.1±11.6 years, 68% females) recruited at the Psychiatry Clinic of Tartu University Hospital in Estonia. The diagnosis according to DSM-IV criteria was verified using Mini International Neuropsychiatric Interview (M.I.N.I. 5.0.0) and substantiated by psychiatric history and medical records. At least moderate severity of depression was required for inclusion as indicated by a Montgomery-Asberg Depression Rating Scale (MADRS) total score of 22 or higher. MDD patients with a secondary current comorbid anxiety disorder were included in this study, except for obsessive-compulsive disorder, posttraumatic stress disorder, or panic disorder, and these comprised 51% of the sample. Patients were excluded if they met diagnostic criteria for any of the following: bipolar disorder, psychotic disorder or features, current eating disorders, mental retardation, any pervasive developmental disorder or cognitive disorder, or alcohol or drug abuse-related disorders within 12 months prior to baseline. Additional exclusion criteria were acute infections, neurological or any other unstable general disorders, serious suicide risk, formal behaviour therapy, or systematic psychotherapy, pregnancy or breastfeeding. None of patients was known to have a history of hypersensitivity or non-response to escitalopram or other SSRIs. The Human Studies Ethics Committee of the University of Tartu and State Agency of Medicines had approved the study protocol, which was in accordance with Declaration of Helsinki. All participants provided their written informed consent.
The patients were treated with escitalopram 10-20 mg/day for 12 weeks using an open-label, placebo non-controlled study design. No other medications, including anti-inflammatory drugs, were allowed during the study, except for hormonal contraceptives and zolpidem or zopiclone for insomnia. Clinical severity and treatment response were assessed bi-weekly using the MADRS and Clinical Global Impression scale (CGI). Hamilton Depression Scale (HAM-D) was also used as a secondary scale for clinical assessments. Additionally, the patients were asked to evaluate the depressive symptoms on the Beck Depression Inventory (BDI) and possible side effects on the Toronto Side-effect Scale (TSES) at each visit. All patients started treatment with escitalopram at a dose of 10 mg/day for the first 4 weeks. The patients showing at least 50% decline in the MADRS total score at week 4 continued taking 10 mg of escitalopram until the end of study. […] At the end of week 12 the patients were defined as responders if the decrease in both MADRS and HAM-D total scores was at least 50% and score on the CGI improvement scale was 2 or less. The remitters were defined if the scores were less than 12 on the MADRS and less than 8 on the HAM-D accordingly to earlier clinical trials. […] The severity of depressive symptoms and treatment response were rated blindly to genotypes by one psychiatrist. Each visit the patients were also asked to report about their regularity of taking the medication.
These 38 markers were genotyped in the remaining 116 individuals, and tested for association with the clinical outcome. Three different outcome definitions were used: MADRS score at the final visit (week 12), relative change (percentage) in MADRS score since baseline, and absolute change in MADRS score since baseline. For each outcome, a univariate additive regression model was fitted to assess the association, as well as a multivariate model, adjusted for age, gender, age at first depression episode, baseline MADRS and BDI scores. Additionally a mixed-effects longitudinal model was fit for MADRS scores at week 0 to week 12, using a random subject-specific intercept. Also here, both unadjusted and adjusted models were fit. […]

`CN(C)CCC[C@@]1(c2ccc(F)cc2)OCc2cc(C#N)ccc21` [escitalopram] was tested, and the “decrease of relative MADRS score reduction from baseline per copy of the rs41271330 minor allele” value [1] was 7%, the “patients who discontinued treatment due to lack of efficacy or side effects” value ([2]; 12-week study) was 6.7% and the “decrease of relative MADRS score reduction from baseline per copy of the rs41271330 minor allele” value ([2]; Estonian sample, 116 patients, SE=6%) was 18%. The “patients who needed an increased dose after the initial 4 weeks” value ([2]; carriers of rs41271330 minor allele) was 88.9%, the “patients with moderate or severe depression (MADRS score 16 or more)” value ([2]; carriers of rs41271330 minor allele (A), 14/27) was 52% and the “patients with moderate or severe depression (MADRS score 16 or more)” value ([2]; homozygous for rs41271330 major allele (G), 19/89) was 22%. For the same compound, the “patients with insufficient or partial response to treatment” value ([2]; end of week 12) was 32.6%, the “patients defined as responders” value ([2]; end of week 12, 10-20 mg/day, 135 MDD outpatients, at least 50% decrease in MADRS and HAM-D and CGI improvement 2 or less) was 60.7% and the “patients who achieved remission” value ([2]; end of week 12, MADRS less than 12 and HAM-D less than 8, of total sample) was 58.5%. For the same compound, the “patients who needed an increased dose after the initial 4 weeks” value ([2]; homozygous for rs41271330 major allele) was 62.9%, the “responders among the patients whose daily dose was increased and kept at 20 mg” value ([2]; of 85 patients on 20 mg, end of study) was 41 patients and the “number of patients with MADRS score at week 12 of 0...7” value ([2]; rs41271330 A/G + A/A) was 9. For the same compound, the “number of patients with MADRS score at week 12 of 8...15” value ([2]; rs41271330 A/G + A/A) was 4, the “number of patients with MADRS score at week 12 of 16...25” value ([2]; rs41271330 A/G + A/A) was 10 and the “number of patients with MADRS score at week 12 of >25” value ([2]; rs41271330 A/G + A/A) was 4. The “share of patients with MADRS score at week 12 of 0...7” value ([2]; rs41271330 A/G + A/A) was 33%, the “share of patients with MADRS score at week 12 of 8...15” value ([2]; rs41271330 A/G + A/A) was 15% and the “share of patients with MADRS score at week 12 of 16...25” value ([2]; rs41271330 A/G + A/A) was 37%. The “share of patients with MADRS score at week 12 of >25” value ([2]; rs41271330 A/G + A/A) was 15%, the “number of patients with MADRS score at week 12 of 0...7” value ([2]; rs41271330 G/G) was 61 and the “number of patients with MADRS score at week 12 of 8...15” value ([2]; rs41271330 G/G) was 9. The “number of patients with MADRS score at week 12 of 16...25” value ([2]; rs41271330 G/G) was 15, the “number of patients with MADRS score at week 12 of >25” value ([2]; rs41271330 G/G) was 4 and the “share of patients with MADRS score at week 12 of 0...7” value ([2]; rs41271330 G/G) was 69%. The “share of patients with MADRS score at week 12 of 8...15” value ([2]; rs41271330 G/G) was 10%, the “share of patients with MADRS score at week 12 of 16...25” value ([2]; rs41271330 G/G) was 17% and the “share of patients with MADRS score at week 12 of >25” value ([2]; rs41271330 G/G) was 4%.
